Measured values from EPA's ToxValDB 9.5.
Several values for one entry are separate records, joined by “and”; a condition that tells them apart may be missing. Equal entries are not always repeated.

Tested on: Rattus norvegicus
Conditions: for LD50 / LC50: acute
[1] = short-term, duration: 28 days, oral, gavage, Wistar
[2] = short-term, duration: 28 days, oral, gavage, M, Sprague-Dawley
[3] = subchronic, duration: 13 weeks, oral, gavage, Sprague-Dawley
[4] = subchronic, duration: 90 days, oral, diet
[5] = reproduction developmental, duration: 83 days, oral, gavage, Sprague-Dawley

CC(C)(C)c1cccc(C(C)(C)C)c1O [2,6-Di-tert-butylphenol]
LD50 (oral, gavage): 6290 mg/kg
LD50 (oral, gavage, Sprague-Dawley): > 5000 mg/kg
NOAEL (developmental, oral, gavage, Wistar): > 750 mg/kg-day
NOAEL (reproduction developmental, oral, gavage, Wistar): 150 mg/kg-day
NOAEL [1]: 15 mg/kg-day

CCC(C)(N)C#N (centres undefined) [2-Amino-2-methyl-butyronitrile]
LC50 (inhalation, Crl:CD(SD) BR): 430 mg/m3 and 446 mg/m3 and 417 mg/m3
LD50 (oral, gavage, Sprague-Dawley): 74 mg/kg

CC(C)(N)C#N [2-Amino-2-methylpropionitrile]
LD50 (oral, Sprague-Dawley): ≥ 10 mg/kg and ≤ 30 mg/kg
NOAEL (short-term, duration: 2 weeks, inhalation, M, Sprague-Dawley): 75.7 mg/m3

C=C(C)CC [2-Methylbutene]
LC50 (inhalation, Wistar): > 61000 ppm
NOAEL (reproduction developmental, inhalation, Sprague-Dawley): 7000 ppm

CCCCN(CCCC)c1ccc(C(=O)c2ccccc2C(=O)O)c(O)c1 [2-[4-(Dibutylamino)-2-hydroxybenzoyl]benzoic acid]
LD50 (dermal, Sprague-Dawley): > 2000 mg/kg
LD50 (oral, gavage, Sprague-Dawley): > 5000 mg/kg
LOAEL (reproduction developmental, duration: 21 weeks, oral, gavage, M, Sprague-Dawley): 250 mg/kg-day
LOAEL (reproduction developmental, duration: 21 weeks, oral, gavage, Sprague-Dawley, generation: F1): 250 mg/kg-day
LOAEL [2]: 1000 mg/kg-day
LOAEL [3]: 250 mg/kg-day
NOAEL [3]: 50 mg/kg-day

N#Cc1nc(Cl)c(Cl)c(Cl)c1Cl [3,4,5,6-Tetrachloropyridine-2-carbonitrile]
LD50 (oral, gavage): ≥ 1000 mg/kg and ≤ 2000 mg/kg

O=P(CCCl)(OCCCl)OCCCl [Bis(2-chloroethyl) 2-chloroethylphosphonate]
LD50 (oral, gavage, Sprague-Dawley): 580 mg/kg and 810 mg/kg
NOAEL (developmental, duration: 14 days, oral, gavage, Sprague-Dawley): ≤ 600 mg/kg-day
NOAEL (reproduction developmental, duration: 14 days, oral, gavage, F, Sprague-Dawley): 400 mg/kg-day

COc1cc(NC(=O)C(N=Nc2ccc(-c3ccc(N=NC(C(C)=O)C(=O)Nc4cc(OC)c(Cl)cc4OC)c(Cl)c3)cc2Cl)C(C)=O)c(OC)cc1Cl (centres undefined) [C.I. Pigment Yellow 83]
LD50 (oral, gavage): > 1750 mg/kg
NOAEL (chronic, duration: 104 weeks, oral, gavage, Sprague-Dawley): 630 mg/kg-day

CCCCCCCCCCc1cc(Oc2ccc(S(=O)(=O)O)cc2)ccc1S(=O)(=O)O [Decyl(sulfophenoxy)benzenesulfonic acid]
LD50 (oral, gavage, Fischer 344): ≥ 1000 mg/kg and ≤ 2000 mg/kg
LD50 (oral, gavage, Sprague-Dawley): 3010 mg/kg

CCCCCCCCCCCCCOC(=O)CCSCCC(=O)OCCCCCCCCCCCCC [Di(tridecyl) thiodipropionate]
LD50 (oral): > 2000 mg/kg

CC(C)CCCCCCCOC(=O)CCCCCCCC(=O)OCCCCCCCC(C)C [Diisodecyl azelaate]
LD50 (oral, gavage, Wistar): > 2000 mg/kg

O=[N+]([O-])c1ccc(C=Cc2ccc([N+](=O)[O-])cc2S(=O)(=O)[O-])c(S(=O)(=O)[O-])c1.[Na+].[Na+] [Disodium 4,4'-dinitro-2,2'-stilbenedisulfonate]
LD50 (oral): > 16000 mg/kg

CCCCCCC(C)(C)C(=O)OCC1CO1 (centres undefined) [Glycidyl neodecanoate]
LD50 (dermal, Wistar): > 4000 mg/kg
LD50 (oral, gavage, Wistar): > 10000 mg/kg

CC(C)N.CCCCCCCCCC(CC)c1ccc(S(=O)(=O)O)cc1 (centres undefined) [Isopropylammonium dodecylbenzenesulfonate]
LD50 (oral): 1840 mg/kg
LD50 (oral, gavage, Sprague-Dawley): 1300 mg/kg

CCCCCCC([O-])CCCCCCCCCCC(=O)OC.[Li+] (centres undefined) [Lithium methyl 12-hydroxystearate]
NOAEL (reproduction developmental, duration: 0 days, dermal, non-occlusive, F, Sprague-Dawley): > 2000 mg/kg-day
NOAEL (reproduction developmental, duration: 10 weeks, dermal, non-occlusive, M, Fischer 344): < 500 mg/kg-day
NOAEL (subchronic, duration: 13 weeks, dermal, non-occlusive, F, Sprague-Dawley): 500 mg/kg-day

CC12CCCCC1C(=O)OC2=O (centres undefined) [Methylhexahydrophthalic anhydride]
LD50 (oral): 3300 mg/kg

Clc1nc(Cl)c(Cl)c(Cl)c1Cl [Pentachloropyridine]
LD50 (oral, gavage, Fischer 344): 435 mg/kg
NOAEL (reproduction developmental, duration: 15 days, oral, gavage, F, Sprague-Dawley): 50 mg/kg-day
LOAEL [4]: 30 mg/kg-day
NOAEL [4]: 10 mg/kg-day

OP(O)c1ccccc1 [Phenylphosphinic acid]
LD50 (oral, gavage): 1470 mg/kg and 1710 mg/kg
NOAEL (subchronic, duration: 31 days, oral, diet): 960 mg/kg-day

O=S(=O)([O-])CCO.[Na+] [Sodium 2-hydroxyethanesulfonate]
LD50 (oral, gavage, Wistar): > 5000 mg/kg

CCCCCCCCC(=O)Oc1ccccc1S(=O)(=O)[O-].[Na+] [Sodium (nonanoyloxy)benzenesulfonate]
LOAEC [5]: 100 mg/kg-day
NOAEL [5]: 1000 mg/kg-day

CCCCCCCC/C=C\CCCCCCCC(=O)OC[C@@H](OC(=O)CCCCCCC/C=C\CCCCCCCC)[C@H]1OC[C@H](O)[C@H]1OC(=O)CCCCCCC/C=C\CCCCCCCC [Sorbitan trioleate]
LD50 (oral, gavage, Wistar): > 39800 mg/kg

CCCCCCC(=O)OCCOCCOCCOCCOC(=O)CCCCCC [Tetraethylene glycol diheptanoate]
LD50 (oral, gavage, ChR:CD): > 25000 mg/kg
LD50 (oral, gavage, ChRCD): > 25000 mg/kg
LD50 (oral, gavage, Crl:CD(SD)): > 24500 mg/kg
LD50 (oral, gavage, Wistar): > 2000 mg/kg
LOAEL (short-term, duration: 4 weeks, inhalation, Wistar): 1.1 mg/L
NOAEL [1]: 1000 mg/kg-day

CCCCCCCCCCOC1CCS(=O)(=O)C1 (centres undefined) [Thiophene, 3-(decyloxy)tetrahydro-, 1,1-dioxide]
NOAEL [2]: 100 mg/kg-day
